Measurements taken from patent US6770624B2, “Treatment of heart failure with growth hormone” (The Regents of the University of California, priority 1997, dated 2004).

Legend:
AT1 receptor = experiment: Angiotensin II dose-response curves for changes in carotid arterial pressure (confirmation of AT1 receptor blockade); type: in vivo, rat; conditions: losartan 2 g/L in drinking water for 2 weeks; normal rats and rats with chronic MI
Description: In order to confirm AT1 receptor blockade with losartan, angiotensin II dose-response curves for changes in carotid arterial pressure were carried out in an additional 14 female Sprague-Dawley rats (260-300 g/each). Eight rats were normal, 4 untreated and 4 treated for 2 weeks with losartan (2 g/L in drinking water). In 6 rats a large MI was produced 3 to 4 weeks prior to study, of which 3 received losartan (2 g/L in drinking water) for 2 weeks and 3 were untreated.

normal rats = experiment: Body, organ and cardiac weights in normal rats after AT1 blockade and GH; type: in vivo, rat; conditions: mean ± SD, n=8
Description: Normal Rats: Normal female Sprague Dawley rats (240-260 g each) were randomized to one of the following four groups: rats receiving placebo for 6 weeks (Control group, n=8); rats treated with placebo for 6 weeks with concomitant rhGH (2 mg/kg bid) for the final 2 weeks (GH group, n=8); rats treated with relatively low-dose losartan (L) (20 mg/kg/day in drinking water) for 6 weeks with concomitant rhGH (2 mg/kg/bid, SC) during the final 2 weeks (LowL+GH, n=8); and rats treated with high dose L (2 g/L in drinking water) for 6 weeks with concomitant rhGH (2 mg/kg/bid, SC) during the final 2 weeks (HighL+GH, n=8). In these 32 animals, the responses of body weight (BW) and the weights of the heart and other selected organs were then examined.
After the hemodynamic measurements, the rats were euthanized and wet weights of heart and other selected organs, including liver, spleen, and kidney, were measured. Cardiac fixation was then performed as described by R. L. Duerr (1996) supra. In brief, polyethylene catheters were introduced into the LV apex and the descending aorta. The LV chamber was filled from a reservoir and maintained at 10 mmHg. After washout of blood from the coronary arteries with heparinized saline, the myocardium was perfused retrogradely from the aorta with 10% buffered formalin at a constant pressure of 60 mmHg for 20 minutes. The heart was then excised and immersed in 10% formalin for 24 hours. Subsequently, the atria and adhesions were dissected away and the right ventricle (RV) and LV were separated and weighted, the interventricular septum being included with the LV. The right tibia was dissected and its length from the condyles to the tip of the medial malleolus was measured with a micrometer caliper by the method of Yin et al., Am J Physiol (1982); 243. To compare heart weights among groups, the weights were normalized by tibial length (TL) as well as by body weight (BW).

Compound	shift of angiotensin II-blood pressure dose-response curves (AT1 receptor)	BW (body weight) (normal rats; 6 weeks, rhGH final 2 weeks)	Kidney weight (normal rats; 6 weeks, rhGH final 2 weeks)	Liver weight (normal rats; 6 weeks, rhGH final 2 weeks)	Spleen weight (normal rats; 6 weeks, rhGH final 2 weeks)	TL (tibia length) (normal rats; 6 weeks, rhGH final 2 weeks)	HW/BW (normal rats)	LV/BW (normal rats)	RV/BW (normal rats)	LV wt (normal rats; measured after fixation)	RV wt (normal rats; measured after fixation)	HW (heart weight) (normal rats; measured before fixation)
CCCCc1nc(Cl)c(CO)n1Cc1ccc(-c2ccccc2-c2nn[nH]n2)cc1 [Losartan, losartan]	marked rightward shifts	–	–	–	–	–	–	–	–	–	–	–
GH: recombinant human growth hormone; placebo 6 weeks with rhGH 2 mg/kg bid for the final 2 weeks	–	319.9 ± 15.9 g	2.30 ± 0.19 g	13.69 ± 0.94 g	1.21 ± 0.10 g	4.05 ± 0.08 cm	0.45 ± 0.04%	0.33 ± 0.01%	0.08 ± 0.01%	1.04 ± 0.06 g	0.26 ± 0.02 g	1.42 ± 0.12 g
